Assay results from PubChem BioAssay (NCI).
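Exposure lasted 48 hours, with cells grown in 96-well plates and compounds tested at five concentrations. TGI: total growth inhibition.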

Assays:
Experiment in all cases: DTP human tumour cell line panel, 48 h
T-47D breast = test system: T-47D breast
SK-MEL-2 melanoma = test system: SK-MEL-2 melanoma
OVCAR-4 ovarian = test system: OVCAR-4 ovarian
MDA-N = test system: MDA-N
IGROV1 ovarian = test system: IGROV1 ovarian
NCI-H460 lung = test system: NCI-H460 lung
KM12 colon = test system: KM12 colon
DU-145 prostate = test system: DU-145 prostate
SK-MEL-5 melanoma = test system: SK-MEL-5 melanoma
M14 melanoma = test system: M14 melanoma
MOLT-4 leukemia = test system: MOLT-4 leukemia
EKVX NSCLC = test system: EKVX NSCLC
CCRF-CEM leukemia = test system: CCRF-CEM leukemia
SNB-78 CNS = test system: SNB-78 CNS
SF-295 CNS = test system: SF-295 CNS
LXFL 529 NSCLC = test system: LXFL 529 NSCLC
SK-MEL-28 melanoma = test system: SK-MEL-28 melanoma
HT29 colon = test system: HT29 colon
786-0 renal = test system: 786-0 renal
OVCAR-3 ovarian = test system: OVCAR-3 ovarian
UACC-62 melanoma = test system: UACC-62 melanoma
NCI/ADR-RES ovarian = test system: NCI/ADR-RES ovarian
SNB-19 CNS = test system: SNB-19 CNS
MDA-MB-231 breast = test system: MDA-MB-231 breast
RPMI-8226 leukemia = test system: RPMI-8226 leukemia
OVCAR-8 ovarian = test system: OVCAR-8 ovarian
SF-268 CNS = test system: SF-268 CNS
SW-620 colon = test system: SW-620 colon
KM20L2 colon = test system: KM20L2 colon
HCC-2998 colon = test system: HCC-2998 colon
HOP-62 NSCLC = test system: HOP-62 NSCLC
HCT-116 colon = test system: HCT-116 colon
PC-3 prostate = test system: PC-3 prostate
UO-31 renal = test system: UO-31 renal
HS 578T breast = test system: HS 578T breast
SF-539 CNS = test system: SF-539 CNS
CAKI-1 renal = test system: CAKI-1 renal
ACHN renal = test system: ACHN renal
MDA-MB-435 = test system: MDA-MB-435
HCT-15 colon = test system: HCT-15 colon
COLO 205 colon = test system: COLO 205 colon
DLD-1 colon = test system: DLD-1 colon
K-562 leukemia = test system: K-562 leukemia
MCF7 breast = test system: MCF7 breast
A549 NSCLC = test system: A549 NSCLC
LOX IMVI melanoma = test system: LOX IMVI melanoma
NCI-H23 lung = test system: NCI-H23 lung
SK-OV-3 ovarian = test system: SK-OV-3 ovarian
SN12C renal = test system: SN12C renal
M19-MEL melanoma = test system: M19-MEL melanoma
HOP-92 NSCLC = test system: HOP-92 NSCLC
BT-549 breast = test system: BT-549 breast
OVCAR-5 ovarian = test system: OVCAR-5 ovarian
MALME-3M melanoma = test system: MALME-3M melanoma
TK-10 renal = test system: TK-10 renal
UACC-257 melanoma = test system: UACC-257 melanoma
DMS 273 small cell lung = test system: DMS 273 small cell lung
HL-60(TB) leukemia = test system: HL-60(TB) leukemia
U251 CNS = test system: U251 CNS
NCI-H522 lung = test system: NCI-H522 lung
SR leukemia = test system: SR leukemia
XF 498 CNS = test system: XF 498 CNS
A498 renal = test system: A498 renal
HOP-18 NSCLC = test system: HOP-18 NSCLC
SNB-75 CNS = test system: SNB-75 CNS
RXF 393 renal = test system: RXF 393 renal
NCI-H226 lung = test system: NCI-H226 lung
DMS 114 small cell lung = test system: DMS 114 small cell lung

Cc1ccc(C(=O)OC(C)C)cc1N=NN(C)C
TGI (T-47D breast): > 100 µM
TGI (SK-MEL-2 melanoma): > 100 µM
TGI (OVCAR-4 ovarian): > 100 µM
TGI (MDA-N): > 100 µM
TGI (IGROV1 ovarian): > 100 µM
TGI (NCI-H460 lung): > 100 µM
TGI (KM12 colon): > 100 µM
TGI (DU-145 prostate): > 100 µM
TGI (SK-MEL-5 melanoma): > 100 µM
TGI (M14 melanoma): > 100 µM
TGI (MOLT-4 leukemia): > 100 µM
TGI (EKVX NSCLC): > 100 µM
TGI (CCRF-CEM leukemia): > 100 µM
TGI (SNB-78 CNS): > 100 µM
TGI (SF-295 CNS): > 100 µM
TGI (LXFL 529 NSCLC): > 100 µM
TGI (SK-MEL-28 melanoma): > 100 µM
TGI (HT29 colon): > 100 µM
TGI (786-0 renal): > 100 µM
TGI (OVCAR-3 ovarian): > 100 µM
TGI (UACC-62 melanoma): > 100 µM
TGI (NCI/ADR-RES ovarian): > 100 µM
TGI (SNB-19 CNS): > 100 µM
TGI (MDA-MB-231 breast): > 100 µM
TGI (RPMI-8226 leukemia): > 100 µM
TGI (OVCAR-8 ovarian): > 100 µM
TGI (SF-268 CNS): > 100 µM
TGI (SW-620 colon): > 100 µM
TGI (KM20L2 colon): > 100 µM
TGI (HCC-2998 colon): > 100 µM
TGI (HOP-62 NSCLC): > 100 µM
TGI (HCT-116 colon): > 100 µM
TGI (PC-3 prostate): > 100 µM
TGI (UO-31 renal): > 100 µM
TGI (HS 578T breast): > 100 µM
TGI (SF-539 CNS): > 100 µM
TGI (CAKI-1 renal): > 100 µM
TGI (ACHN renal): > 100 µM
TGI (MDA-MB-435): > 100 µM
TGI (HCT-15 colon): > 100 µM
TGI (COLO 205 colon): > 100 µM
TGI (DLD-1 colon): > 100 µM
TGI (K-562 leukemia): > 100 µM
TGI (MCF7 breast): > 100 µM
TGI (A549 NSCLC): > 100 µM
TGI (LOX IMVI melanoma): > 100 µM
TGI (NCI-H23 lung): > 100 µM
TGI (SK-OV-3 ovarian): > 100 µM
TGI (SN12C renal): > 100 µM
TGI (M19-MEL melanoma): > 100 µM
TGI (HOP-92 NSCLC): > 100 µM
TGI (BT-549 breast): > 100 µM
TGI (OVCAR-5 ovarian): > 100 µM
TGI (MALME-3M melanoma): > 100 µM
TGI (TK-10 renal): > 100 µM
TGI (UACC-257 melanoma): 81.9 µM
TGI (DMS 273 small cell lung): > 100 µM
TGI (HL-60(TB) leukemia): > 100 µM
TGI (U251 CNS): > 100 µM
TGI (NCI-H522 lung): > 100 µM
TGI (SR leukemia): > 100 µM

COc1cc2c(cc1O)[C@H](C)C(c1ccccc1OC)O2 (some centres undefined)
TGI (OVCAR-4 ovarian): 60.2 µM
TGI (XF 498 CNS): 24 µM
TGI (IGROV1 ovarian): > 100 µM
TGI (NCI-H460 lung): 4.2 µM
TGI (KM12 colon): > 100 µM
TGI (A498 renal): 56 µM
TGI (SK-MEL-5 melanoma): 19.7 µM
TGI (M14 melanoma): > 100 µM
TGI (EKVX NSCLC): > 100 µM
TGI (CCRF-CEM leukemia): 30.6 µM
TGI (SNB-78 CNS): > 100 µM
TGI (SF-295 CNS): 22.9 µM
TGI (LXFL 529 NSCLC): 27.1 µM
TGI (SK-MEL-28 melanoma): > 100 µM
TGI (HT29 colon): 61.3 µM
TGI (786-0 renal): 50.5 µM
TGI (OVCAR-3 ovarian): > 100 µM
TGI (UACC-62 melanoma): > 100 µM
TGI (SNB-19 CNS): > 100 µM
TGI (RPMI-8226 leukemia): 13.9 µM
TGI (HOP-18 NSCLC): > 100 µM
TGI (OVCAR-8 ovarian): 57.8 µM
TGI (SNB-75 CNS): 6.48 µM
TGI (SF-268 CNS): > 100 µM
TGI (SW-620 colon): 12.2 µM
TGI (KM20L2 colon): 24.4 µM
TGI (RXF 393 renal): 93.6 µM
TGI (HCC-2998 colon): 90 µM
TGI (HCT-116 colon): 15.4 µM
TGI (UO-31 renal): 70.2 µM
TGI (NCI-H226 lung): 72.3 µM
TGI (DMS 114 small cell lung): 11 µM
TGI (SF-539 CNS): 41.5 µM
TGI (CAKI-1 renal): 69.2 µM
TGI (ACHN renal): 23.9 µM
TGI (HCT-15 colon): 12.1 µM
TGI (COLO 205 colon): 27 µM
TGI (DLD-1 colon): > 100 µM
TGI (K-562 leukemia): > 100 µM
TGI (A549 NSCLC): > 100 µM
TGI (LOX IMVI melanoma): 26.7 µM
TGI (NCI-H23 lung): > 100 µM
TGI (SK-OV-3 ovarian): > 100 µM
TGI (M19-MEL melanoma): > 100 µM
TGI (HOP-92 NSCLC): 62.8 µM
TGI (OVCAR-5 ovarian): > 100 µM
TGI (MALME-3M melanoma): > 100 µM
TGI (TK-10 renal): > 100 µM
TGI (UACC-257 melanoma): > 100 µM
TGI (DMS 273 small cell lung): > 100 µM
TGI (HL-60(TB) leukemia): 7.5 µM
TGI (U251 CNS): 8.01 µM
TGI (NCI-H522 lung): 9.25 µM
